The text below walks through data of patent US6506775B1, “Substituted benzylaminopiperidine compounds” (Pfizer INC, priority 1995, dated 2003).

Structures are written as SMILES.

Usually melting point stands for the temperature of the solid-liquid transition.

For data set [1], the system named is [Sar^9, Met(O2)^11]substance P-induced tapping. As to the kind of experiment: [Sar9, Met(O2)11]substance P-induced tapping test in gerbils. Conditions: repetitive hind paw tapping, Examples 3 and 5 compared with the corresponding no halosubstituted compounds. The class given is in vivo. How it is done:
The activity of the compounds of this invention against CNS disorders is determined in a [Sar^9, Met(O2)^11]substance P-induced tapping test in gerbils. More specifically, gerbils are lightly anesthetized with ether and the skull surface is exposed. [Sar^9, Met(O2)^11]substance P or vehicle (5 μl) are administered directly into the lateral ventricles via a 25 gauge needle inserted 3.5 mm below lambda. Following injection, gerbils are placed in 2 l beaker individually and monitored for repetitive hind paw tapping. Some compounds prepared in the following Examples were tested in accordance with these testing methods.

For `COc1ccc(C(C)(C)C#CC(F)(F)F)cc1CN[C@H]1CCCN[C@H]1c1ccccc1.Cl.Cl`, the melting point was 225 to 227 °C.
Same read-out and setting: the value for `COc1ccc(C(F)(C(F)(F)F)C(F)(F)F)cc1CN[C@H]1CCCN[C@H]1c1ccccc1.Cl.Cl` was 265 to 270 °C.
Molecule `CC(F)(F)c1ccc(OC(F)(F)F)c(CN[C@H]2CCCN[C@H]2c2ccccc2)c1.Cl.Cl` showed a melting point of 172 to 174 °C.
The molecule `COc1ccc(C(F)(F)F)cc1CN[C@H]1CCCN[C@H]1c1ccccc1.Cl.Cl` [Example 3, (2S,3S)-3-(2-Methoxy-5-(trifluoromethyl)benzyl)amino-2-phenylpiperidine dihydrochloride] returned a melting point of 228 to 233 °C. Further, the “activity against CNS disorders” value in data set [1] was “unexpectedly improved activity against CNS disorders”.
For the molecule `Cl.Cl.Fc1ccc(C(F)(F)F)cc1CN[C@H]1CCCN[C@H]1c1ccccc1`, the melting point lay within 195 to 203 °C.
Same read-out and setting: the value for `Cl.Cl.FC(F)(F)c1ccc(Oc2ccccc2)c(CN[C@H]2CCCN[C@H]2c2ccccc2)c1` was 190 to 197 °C.
Turning to `COc1ccc(C(C(F)(F)F)C(F)(F)F)cc1CN[C@H]1CCCN[C@H]1c1ccccc1.Cl.Cl` [Example 5, (2S,3S)-2-Phenyl-3-(5-(2,2,2-trifluoro-1-(trifluoromethyl)ethyl)-2-methoxybenzyl)aminopiperidine dihydrochloride], the melting point was in the range of 290 to 294 °C. The “activity against CNS disorders” value in data set [1] is on record as “unexpectedly improved activity against CNS disorders”.
